Measurements as given in patent US20100144712A1 (priority 2007, published 2010).
≈ marks a conversion by molar mass, not a printed value. Where two headings read alike, the source gives them in different places.

Key:
Format in all cases: cell-based
[1] = tested on: Candida albican ATCC 90873; experiment: In vitro antifungal activity (MIC80), Candida albican ATCC 90873; conditions: Table 2, ATCC 90873; for MIC80: Candida, ATCC90873, read-out: Minimal inhibitory concentration (MIC80)
Method in brief: (§1)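 Broth microdilution in RPMI 1640 with 2% (v/v) final DMSO, test solutions 0.25 to 256 […]. Inoculum of 1.0×10^3–5.0×10^3 CFU/ml came from colonies grown 2–3 days at 35 °C, and alamarBlue was added. MIC80 is the lowest concentration reducing growth by 80% versus untreated control.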

[2] = tested on: Aspergillus fumigatus (ATCC 16424); experiment: In vitro antifungal activity (MIC80), Aspergillus fumigatus ATCC 16424; conditions: for MIC80: Aspergillus fumigatus, read-out: Minimal inhibitory concentration (MIC80)
Method in brief: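 Broth dilution in RPMI 1640 with 2% (v/v) final DMSO; A. fumigatus inoculum from Malt Extract Agar subculture diluted 1000-fold to 0.4×10^2˜5×10^4 CFU/ml, alamarblue added, repeated 2 times. MIC80 is lowest concentration reducing growth 80% versus untreated control.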

[3] = tested on: Aspergillus niger ATCC 9142; experiment: In vitro antifungal activity (MIC80), Aspergillus niger ATCC 9142; conditions: Table 3, ATCC 9142; for MIC80: Aspergillus niger, ATCC9142, read-out: Minimal inhibitory concentration (MIC80)
Protocol: (§2) In vitro antifungal activities of the inventive antifungal compounds were evaluated using test strains including Candida albican (ATCC 90873, 204276, 62342, 64124, 64550, 96901, MYA-573, MYA-574, MYA-575, MYA-576, MYA-1003) and Aspergillus fumigatus (ATCC 16424). Test samples and positive control samples were prepared by dissolving the inventive compounds and comparative compounds, i.e., amphotericin B, fluconazole and itraconazole, in DMSO, respectively, and each successively diluted with medium to obtain test and positive control solutions having test compound concentrations of 0.125 μg/ml to a maximum concentration not generating turbidity. Minimal inhibitory concentration (MIC80) of each compound was determined as the lowest concentration of the test compounds required to reduce growth by 80% relative to a control strain not treated.
(§3) 3) Preparation of test samples: the inventive compounds and comparative compounds were each diluted with DMSO to obtain 1 to 2 ml of a test sample in a concentration of 100-folds of the determining maximum concentration (256 μg/ml).
(§4) The test samples were each successively diluted with RPMI 1640 to obtain test solutions having concentrations of […] in a 12×75 mm sterilized disposable culture tube. The final concentration of DMSO was adjusted to […] (v/v).
(§5) Candida albican strains were each subcultured in Sabourad Dextrose Agar, YM Agar or Potato Dextrose Agar medium at 35° C. for 2˜3 days. In the case of yeasts, a single colony was taken from prominent colonies and suspended in 0.85% sterile physiological saline solution and the turbidity of the suspension was adjusted to 80˜82% at 530 nm, and then diluted 50-fold with RPMI 1640 medium to 1.0×10^3˜5.0×10^3 CFU/ml. The turbidity of fungi was adjusted to 80˜82% and the suspension was diluted 50-fold to […]. Aspergillus fumigatus strains were subcultured in Malt Extract Agar for 7˜10 days, and a single colony was taken from prominent colonies and suspended in 0.85% sterile physiological saline solution and the suspension was adjusted to 0.108 at 530 nm, and then diluted 1000-fold with RPMI 1640 medium to 0.4×10^2˜5×10^4 CFU/ml. The turbidity of fungi was adjusted to 80˜82% and the suspension was diluted 50-fold to 0.4102˜0.5104 CFU/ml.
(§6) The strain solutions thus obtained were each seeded into a sterilized 96-well microplate, 0.1 ml of each test solution were added thereto, and […] of alamarblue was treated to each well (Biosource, #DAL1100). This procedure was repeated 2 times.
(§7) Minimal inhibitory concentration (MIC80) of each compound was determined as the lowest concentration of the test compounds required to reduce growth by 80% relative to a control strain not treated.
(§8) MIC80 of each of the compounds of which antifungal activities can be confirmed by Table 2 was determined using other test strains, i.e., Aspergillus fumigatus ATCC 16424 and MYA-1163, Aspergillus terreus ATCC 28301, Aspergillus flavus ATCC MYA-1004, and Aspergillus niger ATCC 9142.

[4] = tested on: Candida albican ATCC MYA-1003; experiment: In vitro antifungal activity (MIC80), Candida albican ATCC MYA-1003; conditions: Table 2, MYA 1003; for MIC80: Candida, read-out: Minimal inhibitory concentration (MIC80)
Method in brief: as §1

[5] = tested on: Candida albican ATCC MYA-573; experiment: In vitro antifungal activity (MIC80), Candida albican ATCC MYA-573; conditions: Table 2, MYA 573; for MIC80: Candida, read-out: Minimal inhibitory concentration (MIC80)
Method in brief: as §1

[6] = tested on: Candida albican ATCC MYA-574; experiment: In vitro antifungal activity (MIC80), Candida albican ATCC MYA-574; conditions: Table 2, MYA 574; for MIC80: Candida, read-out: Minimal inhibitory concentration (MIC80)
Method in brief: as §1

[7] = tested on: Aspergillus terreus ATCC 28301; experiment: In vitro antifungal activity (MIC80), Aspergillus terreus ATCC 28301; conditions: Table 3, ATCC 28301; for MIC80: Aspergillus terreus, ATCC28301, read-out: Minimal inhibitory concentration (MIC80)
Protocol: as §2, §3, §4, §5, §6, §7, §8

[8] = tested on: Candida albican ATCC 62342; experiment: In vitro antifungal activity (MIC80), Candida albican ATCC 62342; conditions: Table 2, 62342; for MIC80: Candida, ATCC62342, read-out: Minimal inhibitory concentration (MIC80)
Method in brief: as §1

[9] = tested on: Candida albican ATCC MYA-576; experiment: In vitro antifungal activity (MIC80), Candida albican ATCC MYA-576; conditions: Table 2, MYA 576; for MIC80: Candida, read-out: Minimal inhibitory concentration (MIC80)
Method in brief: as §1

[10] = tested on: Candida albican ATCC 64124; experiment: In vitro antifungal activity (MIC80), Candida albican ATCC 64124; conditions: Table 2, 64124; for MIC80: Candida, ATCC64124, read-out: Minimal inhibitory concentration (MIC80)
Method in brief: as §1

[11] = tested on: Candida albican ATCC 96901; experiment: In vitro antifungal activity (MIC80), Candida albican ATCC 96901; conditions: Table 2, ATCC 96901; for MIC80: Candida, ATCC96901, read-out: Minimal inhibitory concentration (MIC80)
Method in brief: as §1

[12] = tested on: Candida albican ATCC MYA-575; experiment: In vitro antifungal activity (MIC80), Candida albican ATCC MYA-575; conditions: Table 2, MYA 575; for MIC80: Candida, read-out: Minimal inhibitory concentration (MIC80)
Method in brief: as §1

[13] = tested on: Aspergillus flavus ATCC MYA-1004; experiment: In vitro antifungal activity (MIC80), Aspergillus flavus ATCC MYA-1004; conditions: Table 3, MYA-1004; for MIC80: Aspergillus flavus, read-out: Minimal inhibitory concentration (MIC80)
Protocol: as §2, §3, §4, §5, §6, §7, §8

[14] = tested on: Candida albican ATCC 64550; experiment: In vitro antifungal activity (MIC80), Candida albican ATCC 64550; conditions: Table 2, 64550; for MIC80: Candida, ATCC64550, read-out: Minimal inhibitory concentration (MIC80)
Method in brief: as §1

[15] = tested on: Aspergillus fumigatus MYA-1163; experiment: In vitro antifungal activity (MIC80), Aspergillus fumigatus MYA-1163; conditions: Table 3, MYA-1163; for MIC80: Aspergillus fumigatus, MYA1163, read-out: Minimal inhibitory concentration (MIC80)
Protocol: as §2, §3, §4, §5, §6, §7, §8

Row | SMILES | MIC80 [1] [µg/mL] | MIC80 ([2]; ATCC16424, Table 2, ATCC 16424) [µg/mL] | MIC80 ([2]; ATCC16424, Table 3, ATCC 16424) [µg/mL] | MIC80 [3] [µg/mL] | MIC80 [4] [µg/mL] | MIC80 [5] [µg/mL] | MIC80 [6] [µg/mL] | MIC80 [7] [µg/mL] | MIC80 [8] [µg/mL] | MIC80 [9] [µg/mL] | MIC80 [10] [µg/mL] | MIC80 [11] [µg/mL] | MIC80 [12] [µg/mL] | MIC80 [13] [µg/mL] | MIC80 [14] [µg/mL] | MIC80 [15] [µg/mL] | further results
1 | C[C@@H]1[C@H](O)[C@@H](C)/C=C/C=C/C=C/C=C/C=C/C=C/C=C/[C@H](O[C@@H]2O[C@H](C)[C@@H](O)[C@H](N)[C@@H]2O)C[C@@H]2O[C@](O)(C[C@@H](O)C[C@@H](O)[C@H](O)CC[C@@H](O)C[C@@H](O)CC(=O)O[C@H]1C)C[C@H](O)[C@H]2C(=O)O [A, amphotericin B, reference compound] |  |  |  |  |  |  |  |  |  |  |  |  |  |  |  |  | Minimal inhibitory concentration (MIC80) [1]: 1 to 2 µg/mL; Minimal inhibitory concentration (MIC80) ([2]; Table 2, ATCC 16424): 1 to 2 µg/mL; Minimal inhibitory concentration (MIC80) ([2]; Table 3, ATCC 16424): 0.5 µg/mL (≈ 0.541 µM); Minimal inhibitory concentration (MIC80) [3]: 0.5 µg/mL (≈ 0.541 µM); Minimal inhibitory concentration (MIC80) [4]: 0.5 µg/mL (≈ 0.541 µM); Minimal inhibitory concentration (MIC80) [5]: 0.5 µg/mL (≈ 0.541 µM); Minimal inhibitory concentration (MIC80) [6]: 0.25 µg/mL (≈ 0.271 µM); Minimal inhibitory concentration (MIC80) [7]: 4 µg/mL (≈ 4.33 µM); Minimal inhibitory concentration (MIC80) [8]: 0.5 µg/mL (≈ 0.541 µM); Minimal inhibitory concentration (MIC80) [9]: 0.5 µg/mL (≈ 0.541 µM); Minimal inhibitory concentration (MIC80) [10]: 0.5 µg/mL (≈ 0.541 µM); Minimal inhibitory concentration (MIC80) [11]: 0.25 µg/mL (≈ 0.271 µM); Minimal inhibitory concentration (MIC80) [12]: 0.5 µg/mL (≈ 0.541 µM); Minimal inhibitory concentration (MIC80) [13]: 4 µg/mL (≈ 4.33 µM); Minimal inhibitory concentration (MIC80) [14]: 0.5 µg/mL (≈ 0.541 µM); Minimal inhibitory concentration (MIC80) [15]: 2 µg/mL (≈ 2.16 µM)
2 | C[C@@H](N1CCN(c2nc3ccc(NCCN4CCOCC4)cc3s2)CC1)[C@](O)(Cn1cncn1)c1ccc(F)cc1F [Example 12, (2R,3R)-3-(4-(6-(2-morpholinoethylamino)benzothiazol-2-yl)piperazin-1-yl)-2-(2,4-difluorophenyl)-1-(1H-1,2,4-triazol-1-yl)butan-2-ol] | 1 (≈ 1.67 µM) | 2 (≈ 3.34 µM) | 2 (≈ 3.34 µM) | 4 (≈ 6.68 µM) | 8 (≈ 13.4 µM) | 2 (≈ 3.34 µM) | 4 (≈ 6.68 µM) | 4 (≈ 6.68 µM) | 8 (≈ 13.4 µM) | 0.25 (≈ 0.418 µM) | 4 (≈ 6.68 µM) | 2 (≈ 3.34 µM) | 1 (≈ 1.67 µM) | 4 (≈ 6.68 µM) | 2 (≈ 3.34 µM) | 4 (≈ 6.68 µM) | 

Second part, led by results:

Row | MIC80 [1] [µg/mL] | MIC80 ([2]; ATCC16424, Table 2, ATCC 16424) [µg/mL] | MIC80 ([2]; ATCC16424, Table 3, ATCC 16424) [µg/mL] | MIC80 [3] [µg/mL] | MIC80 [4] [µg/mL] | MIC80 [5] [µg/mL] | MIC80 [6] [µg/mL] | MIC80 [7] [µg/mL] | MIC80 [8] [µg/mL] | MIC80 [9] [µg/mL] | MIC80 [10] [µg/mL] | MIC80 [11] [µg/mL] | MIC80 [12] [µg/mL] | MIC80 [13] [µg/mL] | MIC80 [14] [µg/mL] | MIC80 [15] [µg/mL] | SMILES | further results
3 | 4 (≈ 13.1 µM) | > 128 | > 128 | > 128 | > 128 | > 128 | > 128 | > 128 | 8 (≈ 26.1 µM) | 64 (≈ 209 µM) | > 128 | > 128 | 16 (≈ 52.2 µM) | > 128 | 32 (≈ 104 µM) | > 128 | OC(Cn1cncn1)(Cn1cncn1)c1ccc(F)cc1F [F, fluconazole, reference compound] | 
4 | 0.125 (≈ 0.292 µM) | 0.125 (≈ 0.292 µM) | 0.125 (≈ 0.292 µM) | 1 (≈ 2.33 µM) | 64 (≈ 149 µM) | 1 (≈ 2.33 µM) | 2 (≈ 4.67 µM) | 1 (≈ 2.33 µM) | 0.25 (≈ 0.583 µM) | 0.125 (≈ 0.292 µM) | 16 (≈ 37.3 µM) | 32 (≈ 74.7 µM) | 0.125 (≈ 0.292 µM) | 0.5 (≈ 1.17 µM) | 2 (≈ 4.67 µM) | 0.5 (≈ 1.17 µM) | C[C@@H](N1CCCN(c2ccccn2)CC1)[C@](O)(Cn1cncn1)c1ccc(F)cc1F [Example 38, (2R,3R)-2-(2,4-difluorophenyl)-3-(4-(pyridin-2-yl)-1,4-diazepan-1-yl)-1-(1H-1,2,4-triazol-1-yl)butan-2-ol] | 
5 | 0.125 (≈ 0.177 µM) | 0.25 (≈ 0.354 µM) | 0.125 (≈ 0.177 µM) | 1 (≈ 1.42 µM) | > 128 | 0.5 (≈ 0.709 µM) | > 128 | 0.25 (≈ 0.354 µM) | 0.25 (≈ 0.354 µM) | 0.125 (≈ 0.177 µM) | > 128 | > 128 | 0.125 (≈ 0.177 µM) | 0.25 (≈ 0.354 µM) | 0.5 (≈ 0.709 µM) | 0.5 (≈ 0.709 µM) | CCC(C)n1ncn(-c2ccc(N3CCN(c4ccc(OCC5COC(Cn6cncn6)(c6ccc(Cl)cc6Cl)O5)cc4)CC3)cc2)c1=O (centres unmarked) [I, itraconazole, reference compound] | 
